Results as given in US9428465B2, “Acid ceramidase inhibitors and their use as medicaments” (FONDAZIONE ISTITUTO ITALIANO DI TECHNOLOGIA, priority 2012, dated 2016).

What was measured:
SW403 cells [1] = test: Isobolographic analysis of combined treatment of SW403 cells (ED50, trypan blue assay); type: cell-based, human
Method: Interaction between drugs was assessed by isobolographic analysis, based on the concept of dose-equivalence which follows from the dose effect curves of the individual drugs (Tallarida R I, Interactions between drugs and occupied receptors. Pharmacol. Ther. 2007, 113, 197-209; Tallarida R J, Raffa R B, The application of drug dose equivalence in the quantitative analysis of receptor occupation and drug combinations. Pharmacol. Ther. 2010; 127, 165-174). Specifically, the individual drugs' potency and efficacy allow calculating the expected effect of a combination of the two drugs.
In the experiment of combined treatment, isobolograms were constructed by plotting on vertical and horizontal axes the ED50 data of the single drugs measured by trypan blue assay after subcronic treatment for 72 hrs. The straight line with axial intercepts represents the isobole of additivity and allows calculating the theoretical additive dose. Synergism is indicated by an observed pair (x, y) that plots below the isobole for the specified effect, whereas sub-additivity is indicated when an observed pair (x, y) plots above the isobole.

SW403 cells [2] = test: SW403 cell viability, trypan blue assay; type: cell-based, human; conditions: prolonged (72 hrs) treatment, concentration-response, FIGS. 2A and 2B
Method: Cells were seeded in 12- or 96-well plates in complete medium 24 hrs before treatment and then incubated for 24 hrs (single treatment) or 72 hrs (multiple treatments) with different drug concentrations in media without serum. Cell viability was then evaluated.
The trypan blue exclusion assay is based on the principle that viable cells have intact cell membrane and can therefore exclude the trypan blue dye. Cell viability was measured after 24 hrs incubation with the drug. Cells were harvested, centrifuged at 1200 rpm for 10 min and pellets re-suspended in PBS. To evaluate viability, cells were diluted 1:1 with 0.4% trypan blue dye (Sigma), incubated for 1 min and white (viable) cells were counted with a hemacytometer.

[3] = test system: human colon adenocarcinoma cell line SW403; test: Ceramide levels in SW403 cells (lipid extraction, LC/MS); type: cell-based; conditions: 3 μM, 3 hrs, vs. vehicle
Method: Lipids were extracted using a chloroform/methanol mixture (2:1 vol/vol, 3 mL) containing internal standards. The organic phases were collected, dried under nitrogen, and dissolved in methanol/chloroform (3:1 vol/vol) for LC/MS analyses.
Ceramides were analyzed by LC/MS^n, using a 1100-LC system (Agilent Technologies) equipped with an Ion Trap XCT and interfaced with ESI (Agilent Technologies). They were separated on a Poroshell 300 SB C18 column (2.1×75 mm i.d., 5 μm; Agilent Technologies) maintained at 30° C. A linear gradient of methanol in water containing 5 mM ammonium acetate and 0.25% acetic acid (from 80% to 100% of methanol in 3 man) was applied at a flow rate of 1 mL/min. […]
Tissue-derived ceramides were identified by comparison of their LC retention times and MS^n fragmentation patterns with those of authentic standards (Avanti Polar Lipids). Extracted ion chromatograms were used to quantify myristoyl ceramide (C140, m/z 510.5>492.5>264.3), palmitoyl ceramide (C16:0, m/z 538.5>520.3>264.3), stearoyl ceramide (C18:0 m/z 566.5>548.3>264.3), lignoceroylceramide (C24:0 m/z 650.5>632.3>264.3), nervonoylceramide (C24:1 m/z 648.5>630.3>264.3) and using lauroyl ceramide standard (m/z 482.5>464.5>264.3). […]

[4] = biological target: rat acid ceramidase (rAC) (Rattus norvegicus (Rat), UniProt Q6P7S1); test: Rat acid ceramidase (rAC) enzymatic assay, LC/MS of lauric acid; type: biochemical; conditions: rat acid ceramidase, 100 μM N-lauroyl ceramide, pH 4.5
rat acid ceramidase (rAC), sequence (Q6P7S1 142-394): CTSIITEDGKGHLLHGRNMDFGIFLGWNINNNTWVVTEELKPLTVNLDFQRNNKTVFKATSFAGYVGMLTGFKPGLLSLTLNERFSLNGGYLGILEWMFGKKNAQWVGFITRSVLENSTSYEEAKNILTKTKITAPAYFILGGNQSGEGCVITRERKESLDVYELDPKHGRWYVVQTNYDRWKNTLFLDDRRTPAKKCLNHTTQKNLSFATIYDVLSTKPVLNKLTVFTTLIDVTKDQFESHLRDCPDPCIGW
rat acid ceramidase (rAC), sequence (Q6P7S1 21-141): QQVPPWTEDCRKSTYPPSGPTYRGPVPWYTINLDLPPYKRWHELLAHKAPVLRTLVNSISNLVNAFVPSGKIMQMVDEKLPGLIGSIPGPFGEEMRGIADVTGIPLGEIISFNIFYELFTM
Method: A lysosomal rat acid ceramidase (rAC) protein preparation was obtained from cells stably expressing rAC resuspended in 20 mM Tris HCl (pH 7.5) with 0.32 M sucrose. Samples were sonicated and centrifuged at 800×g for 15 min at 4° C. Supernatants were then centrifuged at 12,000×g for 30 min at 4° C. Pellets were re-suspended in PBS pH 7.4 and subjected to 2 freeze-thaw cycles at −80° C. The suspension was finally centrifuged at 105,000×g for 1 hr at 4° C. and the supernatant containing rAC was then used in the enzymatic assay.
r-AC protein samples were pre-incubated with various concentrations of test compounds or vehicle control in 100 mM NaH2PO4/citrate buffer pH 4.5, 0.1% Nonidet P-40, 3 mM DTT for 30 min at 37° C. Samples were incubated with 100 μM N-lauroyl ceramide (Nu-Chek Prep, Elysian, Minn.) at 37° for 30 min. The reaction was stopped by addition of a mixture of chloroform/methanol (2:1 vol/vol) containing 1 nmol of heptadecanoic acid (HDA; NuChek Prep). The organic phases were collected, dried under nitrogen, and analyzed by LC/MS in the negative-ion mode using heptadecanoic acid (HDA) as internal standard (m/z=199 for lauric acid, m/z=269 for HDA). HDA was eluted on an XDB Eclipse C18 column isocratically at 2.2 mL/min for 1 min with a solvent mixture of 95% methanol and 5% water, both containing 0.25% acetic acid, and 5 mM ammonium acetate. The column temperature was 50° C. Electrospray ionization (ESI) was in the negative mode, capillary voltage was 4 kV, and fragmentor voltage was 100 V. Nitrogen was used as drying gas at a flow rate of 13 L/min and at a temperature of 350° C. Nebulizer pressure was set at 60 psi. We monitored [M-H]− in the selected-ion monitoring (SIM) mode using HDA as internal standard.
Inhibition of rAC activity was calculated as a reduction of lauric acid in the samples compared to vehicle controls. Median inhibitory concentration (IC50) values were calculated by non-linear regression analysis of log [concentration]/inhibition curves using. GraphPad Prism 5 (GraphPad Software, Inc., CA, USA) applying a standard slope curve fitting.

[5] = SW403 cells, 72 hrs, isobole of additivity, higher than the experimental values

IC50 [4]: 0.051 µM
Compound: CCCCCCNC(=O)n1cc(Br)c(=O)[nH]c1=O [Example 5, 5-bromo-N-hexyl-2,4-dioxo-pyrimidine-1-carboxamide]
theoretical dose (Th) to be used with 20 nM taxol to obtain an additive effect (SW403 cells [1]; [5]): 9.5 µM
theoretical dose (Th) to be used with 300 nM 5FU to obtain an additive effect (SW403 cells [1]; [5]): 14.9 µM
interaction with taxol in reducing viability of SW403 cells (isobologram) (SW403 cells [1]; prolonged treatment, 20 nM taxol, trypan blue ED50): synergistic effect
interaction with 5-fluorouracil in reducing viability of SW403 cells (isobologram) (SW403 cells [1]; prolonged treatment, 300 nM 5FU, trypan blue ED50): synergistic effect
SW403 cell viability (trypan blue assay) (SW403 cells [2]): reduction of the viability
levels of C14:0, C16:0 and C18:0 ceramide [3]: increased
